Data as given in patent US20100286250A1, “FLUORINATED LIPIDS AND METHODS OF USE” (TUFTS UNIVERSITY, priority 2007, published 2010).

Test system: HeLa cells
Experiment: Fluorescence assay of HeLa cells incubated with lipid conjugates (microtiter plate reader)
Format: cell-based
Conditions: preformed complexes, washed with PBS
Experimental: General Procedure for Incubation of Cells with Compounds: Cells were cultured in DMEM/RPMI medium supplemented with 10% fetal bovine serum and 1% penicillin/streptomycin. Cells were suspended in phosphate buffered saline (PBS), incubated with an ethanolic solution of lipid conjugates for 1-2 h at 4 or 37° C. to give a final concentration in each well of 0.01-100 μM in a total volume of 100 μL (10% EtOH). After the incubation period, cells were pelleted by centrifugation and washed (2×) and resuspended in 100 μL PBS and analyzed.
ATP Depletion: Cells were pretreated with 4 mM NaN3/0.8 mM NaF in 100 μL PBS for 30 m at 37° C. The cells were then washed with PBS (2×100 μL) and incubated with 100 μM ethanolic solutions of lipids for 2 h (total volume 100 μL, 10% EtOH). Analysis was carried out as described previously.
Incubation under Hypertonic Conditions: Cells were pretreated with 0.3 M sucrose for 30 min at 37° C. in PBS, and were then incubated with lipid solutions. Analysis was carried out as described previously.
Fluorescence Assay: After the incubation period, HeLa cells in PBS were analyzed using an Infinite™ 200 series microtiterplate reader (Tecan Systems, Inc.). All experiments were carried out in 96 well plates with six replicates. The plates were pretreated with 1% BSA for 12 h at 4° C. to minimize non-specific binding.

Substance: AF: avidin conjugated to fluorescein isothiocyanate [reference compound]
- delivery of AF into the cell (microscopy or fluorescence counting): minimally fluorescent
